For one compound, IC50, Activity and inhibition results are on record in ChEMBL document CHEMBL4364281, “Design of wogonin-inspired selective cyclin-dependent kinase 9 (CDK9) inhibitors with potent in vitro and in vivo antitumor activity” (Eur J Med Chem, 2019).

For one series, the system named is BT-549. As to the kind of experiment: Antiproliferative activity against human BT549 cells assessed as reduction in cell viability after 72 hrs by MTT assay. The class given is functional, cell-based. As to conditions: BT-549, 72 h. In general terms: Formazan colour is commonly taken as a measure of viable cells.
The test system of series [1] is MV4-11. As to the kind of experiment: Cell cycle arrest in human MV4-11 cells assessed as accumulation at G2 phase at 0.25 uM after 24 hrs propidium iodide staining based flow cytometry (reference value: 22.73%). It counts as functional. For orientation: In flow cytometry, cells or beads pass a laser one at a time.
Series [2] relates to MV4-11. As to the kind of experiment: Cell cycle arrest in human MV4-11 cells assessed as accumulation at S phase at 1.25 uM after 24 hrs propidium iodide staining based flow cytometry (reference value: 26.06%). The class given is functional.
Series [3] deals with MV4-11. As to the kind of experiment: Cell cycle arrest in human MV4-11 cells assessed as accumulation at G2 phase at 1.25 uM after 24 hrs propidium iodide staining based flow cytometry (reference value: 22.73%). It counts as functional.
Series [4] relates to MV4-11. The series is described as follows: Induction of apoptosis in human MV4-11 cells assessed as necrotic cells at 0.05 uM after 24 hrs by Annexin-V/propidium iodide staining based flow cytometric method (reference value: 2.64%). The class given is functional.
Series [5] relates to MV4-11. The series is described as follows: Induction of apoptosis in human MV4-11 cells assessed as early apoptotic cells at 0.25 uM after 24 hrs by Annexin-V/propidium iodide staining based flow cytometric method (reference value: 0.36%). The class given is functional.
The subject of series [6] is MV4-11. The series is described as follows: Induction of apoptosis in human MV4-11 cells assessed as necrotic cells at 0.25 uM after 24 hrs by Annexin-V/propidium iodide staining based flow cytometric method (reference value: 2.64%). The class given is functional.
The subject of series [7] is MV4-11. As to the kind of experiment: Induction of apoptosis in human MV4-11 cells assessed as early apoptotic cells at 1.25 uM after 24 hrs by Annexin-V/propidium iodide staining based flow cytometric method (reference value: 0.36%). The class given is functional.
Series [8] deals with Cyclin-dependent kinase 9 (Homo sapiens) (UniProt P50750). As to the kind of experiment: Inhibition of CDK9 in human MV4-11 cells assessed as inhibition of RNA polymerase 2 phosphorylation at S2 residue after 4 hrs by Western blot analysis. It counts as cell-based. In general terms: A western blot detects proteins with antibodies after separation by electrophoresis.
The subject of series [9] is MV4-11. The series is described as follows: Induction of apoptosis in human MV4-11 cells assessed as decrease in c-MYC expression after 4 hrs by Western blot analysis. The class given is functional, cell-based.
The subject of series [10] is MV4-11. As to the kind of experiment: Induction of apoptosis in human MV4-11 cells assessed as increase in caspase-3 level after 24 hrs by Western blot analysis. It counts as functional, cell-based.
Series [11] can be described thus: Toxicity in BALB/c mouse assessed as mortality at 15 to 45 mg/kg, iv administered every other day for 21 days. The class given is organism-based. The note with it: in vivo, 504 h.
The next series concerns HCT-116. As to the kind of experiment: cells. As to conditions: Homo sapiens, HCT-116, 72 h.

Sequence of Cyclin-dependent kinase 9 (Homo sapiens) (P50750 whole entry): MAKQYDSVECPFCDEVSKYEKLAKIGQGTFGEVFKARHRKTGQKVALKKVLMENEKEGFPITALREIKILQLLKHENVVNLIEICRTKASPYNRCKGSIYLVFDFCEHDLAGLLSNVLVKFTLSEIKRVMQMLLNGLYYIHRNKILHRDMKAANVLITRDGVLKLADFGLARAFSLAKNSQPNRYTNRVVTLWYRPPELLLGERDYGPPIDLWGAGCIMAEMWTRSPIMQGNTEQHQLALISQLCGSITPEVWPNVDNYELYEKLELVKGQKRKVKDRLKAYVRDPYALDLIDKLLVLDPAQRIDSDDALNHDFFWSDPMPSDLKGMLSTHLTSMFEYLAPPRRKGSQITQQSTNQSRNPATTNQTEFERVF
Description for HCT-116: Antiproliferative activity against human HCT116 cells assessed as reduction in cell viability after 72 hrs by MTT assay

In general, IC50 refers to the concentration that gives 50% inhibition. Consider `COc1cc(O)c2c(=O)cc(-c3ccc(N4CCN(C)CC4)cc3)oc2c1Oc1c(C)n[nH]c1C`, for which the 50% inhibitory concentration (IC50) with BT-549 turned out to be 1850 nM; in the series with HCT-116, 390 nM. The Activity in the series on MV4-11 [1] was 13.32%; in the series on MV4-11 [2] it was 28.21%; with MV4-11 [3], 9.01%; in the series on MV4-11 [4] it was 7.27%; with MV4-11 [5], 21.25%; in the series on MV4-11 [6], 7.72%. Moreover, the Activity in the series with MV4-11 [7] was 26.43%; in the series with MV4-11 [9], “Dose-dependent effect”; with MV4-11 [10], “Dose-dependent effect”; in [11] it was “Non-Toxic”. For the same compound, the inhibition entry in series [8] is “Dose-dependent effect”.
